Source: US9156796B2, “Benzoimidazole-carboxylic acid amide derivatives as APJ receptor modulators” (SANOFI, priority 2013, dated 2015)

Target: T1, human apelin receptor (Homo sapiens, UniProt P35414)
T1 construct: expressed in transfected cells
T1 sequence (P35414 1-380): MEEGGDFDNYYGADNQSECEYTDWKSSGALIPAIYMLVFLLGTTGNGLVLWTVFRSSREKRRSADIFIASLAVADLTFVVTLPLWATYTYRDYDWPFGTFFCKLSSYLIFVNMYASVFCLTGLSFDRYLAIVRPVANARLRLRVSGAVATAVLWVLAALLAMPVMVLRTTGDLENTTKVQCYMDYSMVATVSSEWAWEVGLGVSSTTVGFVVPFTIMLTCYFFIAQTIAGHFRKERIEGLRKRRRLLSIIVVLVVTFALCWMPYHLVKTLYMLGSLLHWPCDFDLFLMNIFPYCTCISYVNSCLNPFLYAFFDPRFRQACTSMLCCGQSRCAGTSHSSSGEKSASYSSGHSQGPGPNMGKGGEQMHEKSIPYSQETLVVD
Assay: Determination of agonism on the human apelin receptor by a calcium fluorescence assay (FLIPR)
Assay type: cell-based
Conditions: HEK293 cells stably transfected with human apelin receptor and Giaq protein, Fluo-4 calcium fluorescence, read-out: EC50 (APJ agonism)
Summary of the method: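 Agonist EC50s come from peak intracellular calcium transients recorded by FLIPR Tetra, scaled to the 1 μM apelin-13 maximum per plate. Test system: HEK293 stably transfected with human apelin receptor plus Giaq, Fluo-4-loaded (4 μM, 1 h, 37 °C, pH 7.4 buffer with probenecid); ≥7 concentrations, triplicates.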

Row | EC50 [µM] | SMILES
1 | 0.525 | CCC(CC)n1c(Cc2cccs2)nc2cc(C(=O)N[C@@H](CC(C)C)C(=O)NCCN3CCOCC3)ccc21 [Example 231, 1-(1-Ethyl-propyl)-2-thiophen-2-ylmethyl-1H-benzoimidazole-5-carboxylic acid [(S)-3-methyl-1-(2-morpholin-4-yl-ethylcarbamoyl)-butyl]-amide]
2 | 2.92 | CCC(CC)n1c(Cc2cccs2)nc2cc(C(=O)N[C@@H](CC(C)C)C(=O)NC(C)CC(C)C)ccc21 (stereo partly drawn) [Example 232, 1-(1-Ethyl-propyl)-2-thiophen-2-ylmethyl-1H-benzoimidazole-5-carboxylic acid [(S)-1-(1,3-dimethyl-butylcarbamoyl)-3-methyl-butyl]-amide]
3 | 0.394 | CCC(CC)n1c(Cc2cccs2)nc2cc(C(=O)N[C@@H](CC(C)C)C(=O)NCCN3CCCCC3)ccc21 [Example 233, 1-(1-Ethyl-propyl)-2-thiophen-2-ylmethyl-1H-benzoimidazole-5-carboxylic acid [(S)-3-methyl-1-(2-piperidin-1-yl-ethylcarbamoyl)-butyl]-amide]
4 | 0.344 | CCC(CC)n1c(Cc2cccs2)nc2cc(C(=O)N[C@@H](CC(C)C)C(=O)NCCCN3CCOCC3)ccc21 [Example 234, 1-(1-Ethyl-propyl)-2-thiophen-2-ylmethyl-1H-benzoimidazole-5-carboxylic acid [(S)-3-methyl-1-(3-morpholin-4-yl-propylcarbamoyl)-butyl]-amide]
5 | 1.3 | CCC(CC)n1c(Cc2cccs2)nc2cc(C(=O)N[C@@H](CC(C)C)C(=O)N3CCN(c4ccccc4)CC3)ccc21 [Example 235, 1-(1-Ethyl-propyl)-2-thiophen-2-ylmethyl-1H-benzoimidazole-5-carboxylic acid [(S)-3-methyl-1-(4-phenyl-piperazine-1-carbonyl)-butyl]-amide]
6 | 3.87 | CCC(CC)n1c(Cc2cccs2)nc2cc(C(=O)N[C@@H](CC(C)C)C(=O)NCc3ccc(OC)cc3)ccc21 [Example 236, 1-(1-Ethyl-propyl)-2-thiophen-2-ylmethyl-1H-benzoimidazole-5-carboxylic acid [(S)-1-(4-methoxy-benzylcarbamoyl)-3-methyl-butyl]-amide]
7 | 2.48 | CCC(CC)n1c(Cc2cccs2)nc2cc(C(=O)N[C@@H](CC(C)C)C(=O)NC3CCCC3)ccc21 [Example 237, 1-(1-Ethyl-propyl)-2-thiophen-2-ylmethyl-1H-benzoimidazole-5-carboxylic acid ((S)-1-cyclopentylcarbamoyl-3-methyl-butyl)-amide]
8 | 6.55 | CCC(CC)n1c(Cc2cccs2)nc2cc(C(=O)N[C@@H](CC(C)C)C(=O)NCc3ccccc3OC)ccc21 [Example 238, 1-(1-Ethyl-propyl)-2-thiophen-2-ylmethyl-1H-benzoimidazole-5-carboxylic acid [(S)-1-(2-methoxy-benzylcarbamoyl)-3-methyl-butyl]-amide]
9 | 5.59 | CCC(CC)n1c(Cc2cccs2)nc2cc(C(=O)N[C@@H](CC(C)C)C(=O)NCc3ccc4c(c3)OCO4)ccc21 [Example 239, 1-(1-Ethyl-propyl)-2-thiophen-2-ylmethyl-1H-benzoimidazole-5-carboxylic acid {(S)-1-[(benzo[1,3]dioxol-5-ylmethyl)-carbamoyl]-3-methyl-butyl}-amide]
10 | 0.614 | CCC(CC)n1c(Cc2cccs2)nc2cc(C(=O)N[C@@H](CC(C)C)C(=O)N(C)CCc3ccccn3)ccc21 [Example 240, 1-(1-Ethyl-propyl)-2-thiophen-2-ylmethyl-1H-benzoimidazole-5-carboxylic acid {(S)-3-methyl-1-[methyl-(2-pyridin-2-yl-ethyl)-carbamoyl]-butyl}-amide]
11 | 0.257 | CCC(CC)n1c(Cc2cccs2)nc2cc(C(=O)N[C@@H](CC(C)C)C(=O)NCCCN3CCCC3)ccc21 [Example 241, 1-(1-Ethyl-propyl)-2-thiophen-2-ylmethyl-1H-benzoimidazole-5-carboxylic acid [(S)-3-methyl-1-(3-pyrrolidin-1-yl-propylcarbamoyl)-butyl]-amide]
12 | 5.93 | CCC(CC)n1c(Cc2cccs2)nc2cc(C(=O)N[C@@H](CC(C)C)C(=O)Nc3ccc(N(CC)CC)cc3)ccc21 [Example 242, 1-(1-Ethyl-propyl)-2-thiophen-2-ylmethyl-1H-benzoimidazole-5-carboxylic acid [(S)-1-(4-diethylamino-phenylcarbamoyl)-3-methyl-butyl]-amide]
13 | 0.771 | CCC(CC)n1c(Cc2cccs2)nc2cc(C(=O)N[C@@H](CC(C)C)C(=O)NC(C)CN(C)C)ccc21 (stereo partly drawn) [Example 243, 1-(1-Ethyl-propyl)-2-thiophen-2-ylmethyl-1H-benzoimidazole-5-carboxylic acid [(S)-1-(2-dimethylamino-1-methyl-ethylcarbamoyl)-3-methyl-butyl]-amide]
14 | 4.28 | CCC(CC)n1c(Cc2cccs2)nc2cc(C(=O)N[C@@H](CC(C)C)C(=O)NCc3ccc(F)cc3)ccc21 [Example 244, 1-(1-Ethyl-propyl)-2-thiophen-2-ylmethyl-1H-benzoimidazole-5-carboxylic acid [(S)-1-(4-fluoro-benzylcarbamoyl)-3-methyl-butyl]-amide]
15 | 0.291 | CCC(CC)n1c(Cc2cccs2)nc2cc(C(=O)N[C@@H](CC(C)C)C(=O)NCCCCN(C)C)ccc21 [Example 245, 1-(1-Ethyl-propyl)-2-thiophen-2-ylmethyl-1H-benzoimidazole-5-carboxylic acid [(S)-1-(4-dimethylamino-butylcarbamoyl)-3-methyl-butyl]-amide]

Further lines, the molecule ahead of its results:

Row | SMILES | EC50 [µM]
16 | CCC(CC)n1c(Cc2cccs2)nc2cc(C(=O)N[C@@H](CC(C)C)C(=O)NCc3ccccc3)ccc21 [Example 220, 1-(1-Ethyl-propyl)-2-thiophen-2-ylmethyl-1H-benzoimidazole-5-carboxylic acid ((S)-1-benzylcarbamoyl-3-methyl-butyl)-amide] | 2.86
17 | CCC(CC)n1c(Cc2cccs2)nc2cc(C(=O)N[C@@H](CC(C)C)C(=O)NCc3ccco3)ccc21 [Example 221, 1-(1-Ethyl-propyl)-2-thiophen-2-ylmethyl-1H-benzoimidazole-5-carboxylic acid {(S)-1-[(furan-2-ylmethyl)-carbamoyl]-3-methyl-butyl}-amide] | 1.83
18 | CCC(CC)n1c(Cc2cccs2)nc2cc(C(=O)N[C@@H](CC(C)C)C(=O)NCc3cccs3)ccc21 [Example 222, 1-(1-Ethyl-propyl)-2-thiophen-2-ylmethyl-1H-benzoimidazole-5-carboxylic acid {(S)-3-methyl-1-[(thiophen-2-ylmethyl)-carbamoyl]-butyl}-amide] | 3.99
19 | CCC(CC)n1c(Cc2cccs2)nc2cc(C(=O)N[C@@H](CC(C)C)C(=O)NCCc3cccs3)ccc21 [Example 223, 1-(1-Ethyl-propyl)-2-thiophen-2-ylmethyl-1H-benzoimidazole-5-carboxylic acid [(S)-3-methyl-1-(2-thiophen-2-yl-ethylcarbamoyl)-butyl]-amide] | 6.96
20 | CCC(CC)n1c(Cc2cccs2)nc2cc(C(=O)N[C@@H](CC(C)C)C(=O)NCCCN(C)C)ccc21 [Example 224, 1-(1-Ethyl-propyl)-2-thiophen-2-ylmethyl-1H-benzoimidazole-5-carboxylic acid [(S)-1-(3-dimethylamino-propylcarbamoyl)-3-methyl-butyl]-amide] | 0.3
21 | CCC(CC)n1c(Cc2cccs2)nc2cc(C(=O)N[C@@H](CC(C)C)C(=O)N3CCN(C)CC3)ccc21 [Example 225, 1-(1-Ethyl-propyl)-2-thiophen-2-ylmethyl-1H-benzoimidazole-5-carboxylic acid [(S)-3-methyl-1-(4-methyl-piperazine-1-carbonyl)-butyl]-amide] | 0.775
22 | CCC(CC)NC(=O)[C@H](CC(C)C)NC(=O)c1ccc2c(c1)nc(Cc1cccs1)n2C(CC)CC [Example 226, 1-(1-Ethyl-propyl)-2-thiophen-2-ylmethyl-1H-benzoimidazole-5-carboxylic acid [(S)-1-(1-ethyl-propylcarbamoyl)-3-methyl-butyl]-amide] | 4.87
23 | CCC(CC)n1c(Cc2cccs2)nc2cc(C(=O)N[C@@H](CC(C)C)C(=O)NCCCN3CCN(C)CC3)ccc21 [Example 227, 1-(1-Ethyl-propyl)-2-thiophen-2-ylmethyl-1H-benzoimidazole-5-carboxylic acid {(S)-3-methyl-1-[3-(4-methyl-piperazin-1-yl)-propylcarbamoyl]-butyl}-amide] | 0.287
24 | CCC(CC)n1c(Cc2cccs2)nc2cc(C(=O)N[C@@H](CC(C)C)C(=O)Nc3ccc(F)cc3)ccc21 [Example 228, 1-(1-Ethyl-propyl)-2-thiophen-2-ylmethyl-1H-benzoimidazole-5-carboxylic acid [(S)-1-(4-fluoro-phenylcarbamoyl)-3-methyl-butyl]-amide] | 8.5
25 | CCC(CC)n1c(Cc2cccs2)nc2cc(C(=O)N[C@@H](CC(C)C)C(=O)N3CC(C)OC(C)C3)ccc21 (stereo partly drawn) [Example 229, 1-(1-Ethyl-propyl)-2-thiophen-2-ylmethyl-1H-benzoimidazole-5-carboxylic acid [(S)-1-(2,6-dimethyl-morpholine-4-carbonyl)-3-methyl-butyl]-amide] | 1.94
26 | CCC(CC)n1c(Cc2cccs2)nc2cc(C(=O)N[C@@H](CC(C)C)C(=O)NCCN3CCCC3)ccc21 [Example 230, 1-(1-Ethyl-propyl)-2-thiophen-2-ylmethyl-1H-benzoimidazole-5-carboxylic acid [(S)-3-methyl-1-(2-pyrrolidin-1-yl-ethylcarbamoyl)-butyl]-amide] | 0.288
